Marks after values point to notes of the source that are not given here.
Columns and labels:
[1] = test system: Signs and Symptoms of Osteoarthritis; conditions: cited from earlier work
pain = conditions: 100 mg dose, for the duration of the six week study; cited from earlier work
[2] = Combined plots / meta analysis of published pharmacokinetic data; format: in vivo, patients
Experimental: Accordingly, the dose proportionality may not be as is described by the package insert for Celebrex®. As a result of the failure to determine and pursue target PK ranges, in some instances patients receiving 100 mg patients may not get enough of the drug and the 200 mg patients may receive too much of the drug.
In other words, the most efficacious celecoxib dosage is highly individualized among the elderly. Unexpectedly, elderly here is defined as patients greater than >40 or >50, not the usually definition of elderly (age greater>65).
Based on the wide range of AUC values, some instances patients receiving 100 mg patients may not get enough of the drug and the 200 mg patients may receive too much of the drug (FIG. 2).

[3] = Naproxen group, at 12 weeks, n = 198

## Cc1ccc(-c2cc(C(F)(F)F)nn2-c2ccc(S(N)(=O)=O)cc2)cc1 [celecoxib, Celecoxib]
[1]; 100 mg dose compared with 200 mg dose
  side effects reported: fewer side effects
pain
  side effects reported: fewer side effects
[2]; applicant's meta analysis, one dose AUC, elderly (>40 or >50) vs younger patients, FIG. 3
  variability of PK parameters (AUC) by age group: higher variability than younger patients
[2]; combined plots of published pharmacokinetic data, FIG. 2, 100 mg and 200 mg doses
  variability of pharmacokinetics: unexpectedly high

## COc1ccc2cc([C@H](C)C(=O)O)ccc2c1 [Naproxen, naproxen]
[1]; Naproxen group, 12 weeks, n = 198
  Withdrawal due to treatment failure (%): 26‡ %
[1]; [3]
  Patient global assessment condition improved (%): 29‡ %
  Patient global assessment condition worsened (%): 2%
  Physician's global assessment condition improved (%): 33‡ %
  Physician's global assessment condition worsened (%): 1%
[1]; Naproxen group, at 12 weeks, scale 0 to 24, negative change indicating improvement
  Mean +/− SEM Osteoarthritis Severity Index: −3.1 +/− 0.30‡
[1]; Naproxen group, at 12 weeks, scale 0 to 96, negative change indicating improvement
  Mean +/− SEM WOMAC Osteoarthritis Index composite score: −11.9 +/− 1.29‡

— US20160199392A1, “METHOD FOR INDIVIDUALIZED DRUG THERAPY” (Autotelic LLC, priority 2015, published 2016)
